Read-outs that look alike come from different tables or passages of the source.
Target: full length NS3/4a (Hepatitis C virus genotype 1b (isolate BK) (HCV), UniProt P26663)
Test: NS3 Protease Assay (Example A), FRET-based
Type: biochemical
Method in brief: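 Initial rates were taken from fluorescence progress curves over 30 min at room temperature, and IC50 was fitted across replicates. In-house full-length NS3/4a cleaved a FRET peptide (5-FAMsp/QXL520) from the NS4A/B site. Medium: 50 mM Tris pH8, 20 mM DTT, 1% CHAPS, 10% glycerol, 5% DMSO.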

[1] = HCV NS3 protease assay, full length NS3/4a, read-out: Assay A IC50 (μM) average
[2] = read-out: IC50 against the protease activity of the full length NS3/4a
[3] = stated as IC50 less than 30 μM or at least 40% inhibition at a concentration of 100 μM, read-out: IC50 against the protease activity of the full length NS3/4a

Sequence of full length NS3/4a (P26663 1027-1657): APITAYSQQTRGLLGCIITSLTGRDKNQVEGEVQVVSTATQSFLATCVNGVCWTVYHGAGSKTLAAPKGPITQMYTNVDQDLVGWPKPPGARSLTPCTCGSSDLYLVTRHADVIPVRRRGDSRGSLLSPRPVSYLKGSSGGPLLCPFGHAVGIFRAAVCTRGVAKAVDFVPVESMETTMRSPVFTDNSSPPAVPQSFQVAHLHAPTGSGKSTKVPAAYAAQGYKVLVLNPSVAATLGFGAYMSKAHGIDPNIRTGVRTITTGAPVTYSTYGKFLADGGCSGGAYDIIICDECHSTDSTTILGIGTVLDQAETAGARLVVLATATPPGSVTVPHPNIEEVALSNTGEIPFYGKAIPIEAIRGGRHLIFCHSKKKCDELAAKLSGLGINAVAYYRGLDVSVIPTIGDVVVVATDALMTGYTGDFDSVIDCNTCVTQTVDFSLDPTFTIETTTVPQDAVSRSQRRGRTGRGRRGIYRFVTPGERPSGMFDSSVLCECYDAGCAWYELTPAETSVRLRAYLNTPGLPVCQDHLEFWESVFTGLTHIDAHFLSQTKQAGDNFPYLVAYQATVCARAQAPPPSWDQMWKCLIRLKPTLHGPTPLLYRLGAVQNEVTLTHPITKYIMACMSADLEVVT

SMILES	IC50 [1]	IC50 [2]	other results
CC[C@@H](N[C@H](C)CC(N)=O)c1ccc(Cl)c(C(=O)c2ccc(O)cc2)c1F [Example 231, (3R)-3-{[(1R)-1-{4-chloro-2-fluoro-3-[(4-hydroxyphenyl)carbonyl]phenyl}propyl]amino}butanamide]	2.1 µM	1 to 5 µM	–
CC[C@@H](N[C@H](C)CC(N)=O)c1ccc(Cl)c(C(=O)c2ccc(N)nn2)c1F [Example 233, (3R)-3-{[(1R)-1-{3-[(6-aminopyridazin-3-yl)carbonyl]-4-chloro-2-fluorophenyl}propyl]amino}butanamide]	–	–	inhibition at 10 µM: 40%; IC50 [3]: < 30 µM
CC[C@@H](N[C@H](C)CC(N)=O)c1ccc(Cl)c(C(=O)c2ccc(C#N)c(OC)c2)c1F [Example 236, (3R)-3-{[(1R)-1-{4-chloro-3-[(4-cyano-3-methoxyphenyl)carbonyl]-2-fluorophenyl}propyl]amino}butanamide]	–	–	inhibition at 1 µM (@ 1 uM): 56%; IC50 [3]: < 30 µM
CC[C@@H](N[C@@H](C)CC(=O)NCCN)c1ccc(Cl)c(C(=O)c2ccc(N)nc2)c1F [Example 240, (3S)-N-(2-aminoethyl)-3-{[(1 R)-1-{3-[(6-aminopyridin-3-yl)carbonyl]-4-chloro-2-fluorophenyl}propyl]amino}-butanamide]	–	–	inhibition at 0.03 µM (@ 0.03 uM): 48%; IC50 [3]: < 30 µM
CC[C@@H](N[C@H](C)CC(=O)NCCN)c1ccc(Cl)c(C(=O)c2ccc(N)nc2)c1F [Example 241, (3R)-N-(2-aminoethyl)-3-{[(1R)-1-{3-[(6-aminopyridin-3-yl)carbonyl]-4-chloro-2-fluorophenyl}propyl]amino}-butanamide]	0.036 µM	–	–
CC[C@@H](N[C@H](C)CC(=O)NCCO)c1ccc(Cl)c(C(=O)c2ccc(N)nc2)c1F [Example 243, (3R)-3-{[(1R)-1-{3-[(6-aminopyridin-3-yl)carbonyl]-4-chloro-2-fluorophenyl}propyl]amino}-N-(2-hydroxyethyl)butanamide]	0.43 µM	–	–
CC[C@@H](N[C@H](C)CC(N)=O)c1ccc(Cl)c(C(=O)c2ccc(N)c(Cl)c2)c1F [Example 244, (3R)-3-{[(1R)-1-{3-[(4-amino-3-chlorophenyl)carbonyl]-4-chloro-2-fluorophenyl}propyl]amino} butanamide]	0.38 µM	–	–
C[C@H](CC(N)=O)N[C@@H](c1ccc(Cl)c(C(=O)c2ccc(C#N)cn2)c1F)C1CC1 [Example 245, (3R)-3-{[(R)-{4-chloro-3-[(5-cyanopyridin-2-yl)carbonyl]-2-fluorophenyl}(cyclopropyl)methyl]amino}butanamide]	3.4 µM	1 to 5 µM	–
CC[C@@H](N[C@H](C)CC(N)=O)c1ccc(Cl)c(C(=O)c2cc(C)c(N)cn2)c1F [Example 246, (3R)-3-{[(1R)-1-{3-[(5-amino-4-methylpyridin-2-yl)carbonyl]-4-chloro-2-fluorophenyl}propyl]amino} butanamide]	3.9 µM	1 to 5 µM	–
CC[C@@H](N[C@H](C)CC(N)=O)c1ccc(Cl)c(C(=O)c2ccc3c(c2)OCC(=O)N3)c1F [Example 248, (3R)-3-{[(1R)-1-{4-chloro-2-fluoro-3-[(3-oxo-3,4-dihydro-2H-1,4-benzoxazin-7-I)carbonyl]phenyl}propyl]amino}butanamide]	2 µM	1 to 5 µM	–
CC[C@@H](N[C@H](C)CC(N)=O)c1ccc(OC)c(C(=O)c2ccc(N)nc2)c1F [Example 253, (3R)-3-{[(1R)-1-{3-[(6-aminopyridin-3-yl)carbonyl]-2-fluoro-4-methoxyphenyl}propyl]amino}butanamide]	1.4 µM	1 to 5 µM	–
C[C@H](CC(N)=O)N[C@@H](c1ccc(Cl)c(C(=O)c2ccc(N)cn2)c1F)C1CC1 [Example 254, (3R)-3-{[(R)-{3-[(5-aminopyridin-2-yl)carbonyl]-4-chloro-2-fluorophenyl}(cyclopropyl)methyl]amino}butanamide]	1.8 µM	1 to 5 µM	–
C=CC[C@@H](N[C@H](C)CC(N)=O)c1ccc(Cl)c(C(=O)c2ccc(N)nc2)c1F [Example 257, (3R)-3-{[(1R)-1-{3-[(6-aminopyridin-3-yl)carbonyl]-4-chloro-2-fluorophenyl}but-3-en-1-yl]amino}butanamide]	2 µM	1 to 5 µM	–
CC[C@@H](N[C@H](C)CC(N)=O)c1ccc(Cl)c(C(=O)c2ccc(N)c(C)c2)c1F [Example 260, (3R)-3-{[(1R)-1-{3-[(4-amino-3-methylphenyl)carbonyl]-4-chloro-2-fluorophenyl}propyl]amino}butanamide]	–	–	inhibition at 0.3 µM (@ 0.3 uM): 39%
C[C@H](CC(N)=O)N[C@@H](c1ccc(Cl)c(C(=O)c2ccc(CO)cc2)c1F)C1CC1 [Example 264, (3R)-3-{[(R)-(4-chloro-2-fluoro-3-{[4-(hydroxymethyl)phenyl]carbonyl}phenyl)(cyclopropyl)methyl]amino}butanamide]	0.61 µM	–	–
CC[C@@H](N[C@H](C)CC(N)=O)c1ccc(Cl)c(C(=O)c2ccc(N)nc2)c1F [Example 266, (3R)-3-{[(1R)-1-{3-[(6-aminopyridin-3-yl)carbonyl]-4-chloro-2-fluorophenyl}(2,2,3,3,3-deutero)propyl]amino}butanamide]	1.1 µM	1 to 5 µM	–

SMILES	IC50 [1]	IC50 [2]	other results
C[C@H](CC(N)=O)N[C@@H](c1ccc(Cl)c(C(=O)c2ccc3c(c2)OCC(=O)N3)c1F)C1CC1 [Example 271, (3R)-3-{[(R)-{4-chloro-2-fluoro-3-[(3-oxo-3,4-dihydro-2H-1,4-benzoxazin-7-yl)carbonyl]phenyl}(cyclopropyl)methyl]-amino}butanamide]	1.1 µM	1 to 5 µM	–
CC(C)C[C@@H](N[C@H](C)CC(N)=O)c1ccc(Cl)c(C(=O)c2ccc(N)nc2)c1F [Example 272, (3R)-3-{[(1R)-1-{3-[(6-aminopyridin-3-yl)carbonyl]-4-chloro-2-fluorophenyl}-3-methylbutyl]amino} butanamide]	–	–	inhibition at 3 µM: 43%; IC50 [3]: < 30 µM
CC[C@@H](N[C@H](C)CC(N)=O)c1ccc(OC)c(C(=O)c2ccc(N)c(C)c2)c1F [Example 274, (3R)-3-{[(1R)-1-{3-[(4-amino-3-methylphenyl)carbonyl]-2-fluoro-4-methoxyphenyl}propyl]amino}butanamide]	0.56 µM	–	–
CC[C@@H](N[C@H](C)CC(N)=O)c1ccc(OC)c(C(=O)c2cccc(C#N)c2)c1F [Example 277, (3R)-3-{[(1R)-1-{3-[(3-cyanophenyl)carbonyl]-2-fluoro-4-methoxyphenyl}propyl]amino}butanamide]	0.73 µM	–	–
C[C@H](CC(N)=O)N[C@H](CC1CC1)c1ccc(Cl)c(C(=O)c2ccc(N)nc2)c1F [Example 279, (3R)-3-{[(1R)-1-{3-[(6-aminopyridin-3-yl)carbonyl]-4-chloro-2-fluorophenyl}-2-cyclopropylethyl]amino}butanamide]	0.39 µM	–	–
C[C@@H](CC(N)=O)NCc1ccc(Cl)c(C(=O)c2ccccc2)c1F [Example 281, (3S)-3-{[(3-benzoyl-4-chloro-2-fluorophenyl)methyl]amino}butanamide]	0.45 µM	–	–
CC[C@@H](NC1CCOCC1)c1ccc(Cl)c(C(=O)c2cccnc2)c1F [Example 283, N-[(1R)-1-{4-chloro-2-fluoro-3-[(pyridin-3-yl)carbonyl]phenyl}propyl]oxan-4-amine]	–	–	IC50 [3]: < 30 µM
CC[C@@H](NCC1CC1)c1ccc(Cl)c(C(=O)c2cccnc2)c1F [Example 284]	2.7 µM	1 to 5 µM	–
CC[C@@H](NC(C)C)c1ccc(Cl)c(C(=O)c2cccnc2)c1F [Example 285, [(1R)-1-{4-chloro-2-fluoro-3-[(pyridin-3-yl)carbonyl]phenyl}propyl] (propan-2-yl)amine]	2 µM	1 to 5 µM	–
CC[C@H](NC(=O)C1=CCNC1)c1ccc(Cl)c(C(=O)c2cccnc2)c1F [Example 286, N-[(1S)-1-{4-chloro-2-fluoro-3-[(pyridin-3-yl)carbonyl]phenyl}propyl]-2,5-dihydro-1H-pyrrole-3-carboxamide]	0.13 µM	< 1 µM	–
CC[C@H](NC(=O)C1=CCCNC1)c1ccc(Cl)c(C(=O)c2cccnc2)c1F [Example 287, N-[(1S)-1-{4-chloro-2-fluoro-3-[(pyridin-3-yl)carbonyl]phenyl}propyl]-1,2,5,6-tetrahydropyridine-3-carboxamide]	0.14 µM	< 1 µM	–
CC[C@@H](NCc1cnc[nH]1)c1ccc(Cl)c(C(=O)c2cccnc2)c1F [Example 288, [(1R)-1-{4-chloro-2-fluoro-3-[(pyridin-3-yl)carbonyl]phenyl}propyl](1H-imidazol-5-ylmethyl)amine]	1.4 µM	1 to 5 µM	–
CC[C@@H](NC)c1ccc(Cl)c(C(=O)c2cccnc2)c1F [Example 289, [(1R)-1-{4-chloro-2-fluoro-3-[(pyridin-3-yl)carbonyl]phenyl}propyl](methyl)amine]	2.4 µM	1 to 5 µM	–
CC[C@@H](NCCF)c1ccc(Cl)c(C(=O)c2cccnc2)c1F [Example 290, [(1R)-1-{4-chloro-2-fluoro-3-[(pyridin-3-yl)carbonyl]phenyl}propyl] (2-fluoroethyl)amine]	14 µM	–	IC50 [3]: < 30 µM
CC[C@@H](NC(=O)C1=CCNC1)c1ccc(Cl)c(C(=O)c2cccnc2)c1F [Example 291, N-[(1R)-1-{4-chloro-2-fluoro-3-[(pyridin-3-yl)carbonyl]phenyl}propyl]-2,5-dihydro-1H-pyrrole-3-carboxamide]	–	1 to 5 µM	inhibition at 3 µM: 51%
CC[C@@H](N[C@@H]1CCOC1)c1ccc(Cl)c(C(=O)c2cccnc2)c1F [Example 292, (3R)-N-[(1R)-1-{4-chloro-2-fluoro-3-[(pyridin-3-yl)carbonyl]phenyl}propyl] oxolan-3-amine]	–	–	inhibition at 10 µM: 4%

Reference: patent US9145354B2, “Pharmaceutical compounds” (priority 2011, dated 2015)
